# From patent US11207301B2, “Sphingosine 1 phosphate receptor agonists for neuroprotection” (RECEPTOS LLC, priority 2017, dated 2021)
# Tested on: cuprizone-induced mouse model of demyelination
# Assay: Cuprizone-induced mouse model of demyelination / neuroprotection
# Assay type: in vivo, C57BL/6 mice
# Source text: The effect of a S1P receptor agonist on spinal cord axial demyelination or reduction in axonal breaks can be assessed by measuring concentration of neurofilament light chain (NfL) in the plasma. NfL is released to the plasma following axonal injury and degeneration. Histological examination of axons with antineurofilament H non-phosphorylated mouse antibody SMI-32 can also be used to assess axonal demyelination or breaks. NfH is phosphorylated in healthy axons and unphosphorylated in damaged axons. In addition, the effects of ozanimod on the CNS were examined in vivo using the cuprizone-induced mouse model of demyelination and in vitro in primary rodent astrocytes. Efficacy of ozanimod or compound (2-R) was examined in the cuprizone-induced mouse model of neuroprotection. C57BL/6 mice were treated with cuprizone (0.3% weight/weight orally) and rapamycin (10 mg/kg intraperitoneally daily) to demyelinate axons in the brain and concurrently treated with ozanimod (0.1, 0.3, or 1 mg/kg) or compound (2-S) (1 mg/kg) by daily oral gavage to investigate its neuroprotective activity. Neuroprotection was assessed through examination of axonal pathology in the corpus callosum using SMI-32 (antineurofilament H non-phosphorylated mouse monoclonal antibody) staining, functional assessment through kinematic gait analysis and the plasma biomarker neurofilament light chain (NfL). Further, direct activity of ozanimod was examined in resting and activated primary rodent astrocytes in vitro.
smiles,measurement,setting,value
CC(C)Oc1ccc(-c2nc(-c3cccc4c3CC[C@@H]4NCCO)no2)cc1C#N [Ozanimod],overall kinematic gait score,"0.1, 0.3, or 1 mg/kg vs vehicle (FIG. 3)",significantly improved overall kinematic gait score
same,kinematic gait,"cuprizone-induced demyelinated mice vs vehicle, 1 mg/kg (FIG. 2)",improved kinematic gait
same,"neuroprotection, reduction in swollen and transected axons",cuprizone-induced mouse model,neuroprotective
